Data from patent US20200377483A1, “NEW ANTI-MALARIAL AGENT” (MMV MEDICINES FOR MALARIA VENTURE, priority 2016, published 2020).
In brackets after ≈: the same amount, converted by molar mass. Several values for one entry are separate records, joined by “and”; a condition that tells them apart may be missing. Equal values may be shown once. Read-outs that look alike come from different tables or passages of the source. Marks after values point to notes of the source that are not given here.

Assays:
CLint, M = format: in vitro ADME, mouse; settings: M (fourth of H, D, R, M)
CLint, H = format: in vitro ADME, human; settings: H (first of H, D, R, M)
[1] = Solubility in biorelevant media; format: physicochemical
Description: Compounds were each accurately weighed into individual screw cap polypropylene tubes and media added to give a nominal minimum target compound concentration of 2.2 mg/mL. Samples were vortex mixed and placed in a 37° C. incubator where they were continually mixed on an orbital shaker (IKA® VXR basic Vibrax® orbital shaker) at 600 rpm. Incubation times were 1 hour for fasted state simulated gastric fluid (FaSSGF) and 5 hours for fasted and fed state simulated intestinal fluids (FaSSIF-V2 and FeSSIF-V2 respectively). Sampling was carried out by centrifuging each sample at 10,000 rpm for 3 minutes, transferring 300 μL, aliquots into fresh Eppendorf tubes and centrifuging these tubes again at 10,000 rpm for 3 minutes. Triplicate aliquots of each final supernatant were diluted 20-fold in 50% aqueous methanol, and then further diluted in 50% aqueous acetonitrile to be within an appropriate concentration range for analysis by LC-MS. LC-MS methods and validation data for the analysis of solubility samples are shown in Table 2 below and the media composition is shown in Table 3.

CLint, D = format: in vitro ADME, dog; settings: D (second of H, D, R, M)
[2] = test system: chloroquine-sensitive (NF54) strain of P. falciparum; experiment: In vitro antimalarial activity, NF54 strain; format: cell-based
Description: (§1) The ability of dispiro 1,2,4-trioxolane derivatives according to the invention to show antimalarial efficacy in vitro and in vivo was tested as described in Charman, et al, 2011, PNAS, 108, 4400-4405 against chloroquine-resistant (K1) and chloroquine-sensitive (NF54) strains of P. falciparum in vitro (Vennerstrom et al. 2004, Nature, 430, 900-904).
(§2) The in vivo activity is shown in P. berghei (Pb) infected mice in terms of the percentage of inhibition of parasitemia following compound administration and the number of survival days.

[3] = test system: artemisinin-resistant P. falciparum isolate from Cambodia; experiment: Ring-stage survival assay (RSA0-3h); format: cell-based; settings: for RSA values ± SEM (survival): 6 h exposure, 66 h post-treatment
Description: Agents Chemother. 57:914-923), but with a few modifications in the drug washing procedure to ensure that no residual peroxide was present during the 66 h post-treatment period. Briefly, 0-3 h post-invasion ring stages were adjusted to 1% parasitemia and 2.5% haematocrit by adding uninfected erythrocytes, transferred in a total volume of 1 mL into 48-well plates and exposed for 6 h to a range of concentrations ([…]) of DHA or one of the compounds tested in this study. After 6 h, cultures were transferred to 15 mL conical tubes, centrifuged at 1400 rpm (400 g) for 2 min and carefully washed 2 times with 12 mL of culture medium. […] After washing, blood pellets were resuspended in complete compound-free culture medium, transferred into new wells and cultured for 66 h in standard conditions. Table 8 below presents the Ring-stage survival assay (RSA) values as tested in Wells et al., 2015, supra for compounds of the invention and comparative compounds.

CLint, R = format: in vitro ADME, rat; settings: R (third of H, D, R, M)
[4] = Solubility in biorelevant media; format: physicochemical; settings: PBS, pH 7.4
[5] = test system: chloroquine-resistant (K1) strain of P. falciparum; experiment: In vitro antimalarial activity, K1 strain; format: cell-based
Description: as §1, §2

[6] = test system: 7 CYP isoforms (1A2, 2B6, 2C8, 2C9, 2C19, 2D6, 3A4/5); experiment: Cyp inhibition IC50, 7 isoforms, human liver microsomes; format: in vitro ADME
Description: The assessment of time-dependent inhibition was based on measurement of the “IC50 shift”, whereby the IC50 was measured following pre-incubation of test compound (or reference inhibitor) in the absence or presence of NADPH. A 10-fold dilution step was incorporated following the pre-incubation to minimize reversible product inhibition (by potential metabolites of test compound) such that evidence of time-dependent inhibition is more likely to reflect mechanism-based inhibition. The maximum concentration of test compound in the pre-incubation mixture (containing either 1 or 2 mg/mL microsomal protein and 1.0% v/v DMSO) was 200 μM, and the potential for precipitation of test compound was closely monitored at the time of spiking. […] On this basis, it is assumed that test compounds were fully dissolved at all concentrations in the pre-incubation mixtures. Reference inhibitors (both mechanism-based and reversible inhibitors) were included to validate the assay. […]

[7] = test system: CYP isoforms (1A2, 2B6, 2C8, 2C9, 2C19, 2D6, 3A4/5); experiment: Time-dependent CYP inhibition (IC50 shift), CYP isoforms; format: in vitro ADME; settings: human liver microsomes, 30 min pre-incubation with or without NADPH
Description: Time-dependent CYP inhibition can occur as a result of irreversible interactions of a test compound with a CYP450 enzyme (i.e. mechanism-based inhibition; MBI) or, alternatively, by reversible product inhibition (i.e. whereby the metabolite of the test compound is responsible for inhibition of the CYP). The potential for time-dependent CYP inhibition was assessed using CYP-specific metabolic pathways in human liver microsomes by measuring the formation of metabolites known to be formed by individual CYP isoforms (Table 5) according to the following protocol (probe substrates, metabolites and incubation times):
The assessment of time-dependent inhibition was based on measurement of the “IC50 shift”, whereby the IC50 was measured following pre-incubation of test compound (or reference inhibitor) in the absence or presence of NADPH. A 10-fold dilution step was incorporated following the pre-incubation to minimize reversible product inhibition (by potential metabolites of test compound) such that evidence of time-dependent inhibition is more likely to reflect mechanism-based inhibition. The maximum concentration of test compound in the pre-incubation mixture (containing either 1 or 2 mg/mL microsomal protein and 1.0% v/v DMSO) was 200 μM, and the potential for precipitation of test compound was closely monitored at the time of spiking. […]

P. berghei = experiment: In vivo activity in P. berghei (Pb) infected mice
Description: as §1, §2

SMILES	Conc. (solubility) ([1]; FaSSGF, 37° C., 1 hour) [µg/mL]	Conc. (solubility) ([1]; FaSSIF-V2, 37° C., 5 hours) [µg/mL]	Conc. (solubility) ([1]; FeSSIF-V2, 37° C., 5 hours) [µg/mL]	IC50 NF54 [2] [ng/mL]	RSA values ± SEM (survival) ([3]; 49 nM)	RSA values ± SEM (survival) ([3]; 88 nM) [%]	RSA values ± SEM (survival) ([3]; 175 nM) [%]	RSA values ± SEM (survival) ([3]; 350 nM) [%]	RSA values ± SEM (survival) ([3]; 700 nM)	Conc. (solubility) [4]	IC50 K1 [5] [ng/mL]	% activity (percentage of inhibition of parasitemia) (P. berghei; Pb 1 × 10 mg/kg) [%]	Survival days (P. berghei; Pb 1 × 10 mg/kg) [days]	% activity (percentage of inhibition of parasitemia) (P. berghei; Pb 1 × 30 mg/kg) [%]	Survival days (P. berghei; Pb 1 × 30 mg/kg) [days]	also measured
c1cc(C2CCC3(CC2)OOC2(O3)C3CC4CC(C3)CC2C4)ccc1OCCC1CCNCC1 (stereo not drawn) [Compound (2), cis-Adamantane-2-spiro-3′-8′-[4′-[2′-(4′-piperidinyl)ethoxy]phenyl]-1′,2′,4′-trioxaspiro [4.5]decane]	5.6	293	1632	1.4 (≈ 0.00299 µM)	0.76 ± 0.60%	0	0	0	0%	<1^c μg/mL	1.4 (≈ 0.00299 µM)	99.4	13.4	99.5	>30	CLint M (CLint, M): 16 µL/min/mg; CLint H (CLint, H): < 7 µL/min/mg; CLint D (CLint, D): 9 µL/min/mg; growth of the artemisinin-resistant isolate ([3]; 700, 350, 175 and 88 nM): completely inhibiting the growth; CLint R (CLint, R): < 7 µL/min/mg; IC50 [6]: > 20 µM; Time Dependent Inhibition [7]: none
CC1(C)CC(O)(COc2ccc([C@H]3CC[C@]4(CC3)OOC3(O4)C4CC5CC(C4)CC3C5)cc2)CC(C)(C)N1 (stereo partly drawn) [Compound (1), cis-Adamantane-2-spiro-3′-8′-[4′-[(4′-hydroxy-2′,2′,6′,6′-tetramethyl-4′-piperidinyl)methoxy]phenyl]-1′,2′,4′-trioxaspiro[4.5]decane]	10.1	1516	>2000	0.9 (≈ 0.00171 µM)	1.29 ± 1.24%	0.16 ± 0.23	0.11 ± 0.08	0	0%	10.6 µg/mL	1.2 (≈ 0.00228 µM)	99.1	13.6	99.6	>30	
C[C@H]1[C@@H](O)O[C@@H]2O[C@@]3(C)CC[C@H]4[C@H](C)CC[C@@H]1[C@@]24OO3 [DHA, Dihydroartemisinin, reference compound]					74% and 73.5 ± 12.3%	60.03 ± 4.99	47.94 ± 3.88	37.67 ± 3.65	33% and 33.02 ± 4.39%							
c1cc([C@H]2CC[C@]3(CC2)OO[C@]2(O3)C3CC4CC(C3)CC2C4)ccc1OCCN1CCOCC1 [Compound C1, reference compound]	79.0	40.6	563			0.93 ± 0.93	0.73 ± 1.03	0.73 ± 1.03	0.73 ± 1.03%			99.5	15.2	98.1	>30	solubility at 1 h ([1]; fasted state simulated gastric fluid (FaSSGF), 37 °C, fassgf or other biorelevant, thermodynamic from solid, FaSSGF, 37° C., 1 hour, read-out: Conc. (solubility)): 51.9 µg/mL (≈ 111 µM); solubility at 5 h ([1]; fasted state simulated intestinal fluid (FaSSIF-V2), 37 °C, fassif, thermodynamic from solid, FaSSIF-V2, 37° C., 5 hours, read-out: Conc. (solubility)): 22.3 µg/mL (≈ 47.5 µM); solubility at 5 h ([1]; fed state simulated intestinal fluid (FeSSIF-V2), 37 °C, fessif, thermodynamic from solid, FeSSIF-V2, 37° C., 5 hours, read-out: Conc. (solubility)): 557 µg/mL (≈ 1190 µM); IC50 ([2]; Plasmodium falciparum): 2 ng/mL (≈ 0.00426 µM)
